{
  "source": "patent US20090325952A1",
  "about": "“PYRAZOLO[3,4-B]PYRIDINE COMPOUNDS, AND THEIR USE AS PDE4 INHIBITORS” (Glaxo Group Limited, priority 2006, published 2009)",
  "key": {"[1]": {"system": "TNF-α (TNF-alpha) production in human PBMC (peripheral blood mononuclear cells)", "assay": "Inhibition of TNF-alpha production in human PBMC assay (MSD technology)", "type": "cell-based", "conditions": "Homo sapiens, PBMC, LPS stimulated, measured and/or mean of n measurements, read-out: PBMC pIC50 (MSD assay), inhibition of TNF-α production (converted)", "description": "A 96-well plate (96 MicroWell™ Plates Nunclon™Δ-High Flange Design, Fisher Scientific UK, Bishop Meadow Road, Loughborough LE 11 5 RG, Leicestershire, UK) is prepared by initially adding to column 1 ca. 10 mM of test compound dissolved in DMSO. […] The compound is further diluted with DMSO into columns 2 to 9 by 8 successive 3-fold dilutions using the Biomek® FX Laboratory Automation Workstation (Beckman Coulter, Inc., 4300 N. Harbor Boulevard, P.O. Box 3100, Fullerton, Calif. 92834-3100, USA). Column 10 is used as a DMSO negative control (High Signal, 0% response), whilst column 11, which contains 10 mM of the PDE4 inhibitor roflumilast, is used as a positive control (Low Signal, 100% response). About 1 μl (about 1 ul) of compound is transferred to the compound plate using the Biomek® FX.\nPBMC cells (peripheral blood mononuclear cells) are prepared from heparinised human blood (using 1% v/v Heparin Sodium 10001 U/ml Endotoxin Free, Leo Laboratories Ltd., Cashel Road, Dublin 12. Ireland, Cat No: PL0043/0149) from normal volunteers using the Accuspin™ System-Histopaque®-1077 essentially (Sigma-Aldrich Company Ltd., The Old Brickyard New Rd, Gillingham, Dorset SP8 4XT, UK). About 20 ml of blood is overlaid onto 15 ml Histopaque® in Accuspin™ tubes. The tube is then centrifuged at about 800 g for ca. 20 minutes. The cells are collected from the interface, washed by centrifugation (ca. 1300 g, ca. 10 minutes) and resuspended in RPMI1640 medium (Low endotoxin RPMI1640 medium, Cat No: 31870-025, Invitrogen Corporation Invitrogen Ltd, 3 Fountain Drive, Inchinnan Business Park, Paisley PA4 9RF, UK) containing 10% foetal calf serum, 1% L-glutamine (Invitrogen Corporation, Cat No: 25030024) and 1% penicillin/streptomycin (Invitrogen Corporation, Cat No: 15140-122). Viable cells are counted by trypan blue staining and diluted to 1×10^6 viable cells/ml. About 50 μl (about 50 ul) of diluted cells and about 75 μl (about 75 ul) of LPS (ca. 1 ng/ml final; Sigma Cat No: L-6386) are added to the compound plate, which is then incubated at 37° C., 5% CO2, for 20 hours.\nThe supernatant is removed and the concentrations of TNF-α are determined by electrochemiluminescence assay using the Meso Scale Discovery (MSD) technology (Meso Scale Discovery, 9238 Gaither Road, Gaithersburg, Md. 20877, USA). See the “TNF-α (TNF-alpha) MSD Assay” described below for typical details.\nFor the following Examples, which are compounds of formula (I) or salts thereof, and generally when using the one of the above assays, or a generally similar or generally analogous assay, the measured and/or mean pIC50 values for inhibition of TNF-α (TNF-alpha) production in PBMCs are generally as follows (subject to a possibly-large variability or error):\nUsing the Biomek FX, 25 μl (25 ul) of MSD Human Serum Cytokine Assay Diluent (Meso Scale Discovery, 9238 Gaither Road, Gaithersburg, Md. 20877) is added to a 96-well High-Bind MSD plate pre-coated with anti-hTNF alpha capture antibody (MA6000) and then incubated for 24 hours at 4° C. to prevent non-specific binding. About 20 μl (ul) of supernatant from the PBMC plate or about 40 μl (ul) of supernatant from the whole blood (WB) plate are then transferred from columns 1-11 to columns 1-11 of the MSD plate using the Biomek FX. About 20 μl (ul) of TNF-α standard (Cat No. 210-TA; R&D Systems Inc., 614 McKinley Place NE, Minneapolis, Minn. 55413, USA) are added to column 12 of the MSD plate to generate a standard calibration curve (about 0 to 30000 pg/ml final).\nFor the Whole Blood assay, plates are washed after 2 hours shaking with a Skanwasher 300 version B (Skatron Instruments AS. PO Box 8, N-3401 Lier, Norway). About 40 μl (ul) of diluted sulfo-TAG antibody (ca. […] final) is added, the plates are shaken at room temperature for 1 hours, and the plates washed again as above. About 150 μl (ul) of Read Buffer T (2×) is added to the plates, which are then read on a MSD Sector 6000. […]"}, "[2]": {"target": "T1, PDE4B (human recombinant) (Homo sapiens, UniProt Q07343)", "T1 construct": "made in house; host or cells: Saccharomyces cerevisiae strain GL62 (PDE-deficient yeast)", "T1 sequence (Q07343 1-564 isoform Q07343-2)": "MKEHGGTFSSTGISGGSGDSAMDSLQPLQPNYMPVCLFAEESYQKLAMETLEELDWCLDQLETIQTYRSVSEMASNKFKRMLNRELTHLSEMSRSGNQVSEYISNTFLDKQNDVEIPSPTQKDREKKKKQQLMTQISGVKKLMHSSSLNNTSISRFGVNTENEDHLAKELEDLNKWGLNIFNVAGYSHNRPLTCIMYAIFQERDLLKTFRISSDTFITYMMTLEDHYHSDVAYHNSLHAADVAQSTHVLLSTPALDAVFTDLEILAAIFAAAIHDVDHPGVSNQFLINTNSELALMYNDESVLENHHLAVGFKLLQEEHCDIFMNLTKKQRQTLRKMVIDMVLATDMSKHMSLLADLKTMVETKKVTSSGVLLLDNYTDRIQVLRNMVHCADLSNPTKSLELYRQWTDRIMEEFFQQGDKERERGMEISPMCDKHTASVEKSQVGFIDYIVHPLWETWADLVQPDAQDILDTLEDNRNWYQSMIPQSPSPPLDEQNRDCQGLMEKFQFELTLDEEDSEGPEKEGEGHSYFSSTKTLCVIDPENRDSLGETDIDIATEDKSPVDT", "assay": "Inhibition of PDE4B activity (FP and/or SPA assay)", "type": "biochemical", "conditions": "generally FP assay; one reading or average of n readings; read-out: PDE4B pIC50 (generally in FP assay) (±about 0.5) (converted)", "from_the_text": "Human recombinant PDE4B, in particular the 2B splice variant thereof (HSPDE4B2B), is disclosed in WO 94/20079 and also M. M. McLaughlin et al., “A low Km, rolipram-sensitive, cAMP-specific phosphodiesterase from human brain: cloning and expression of cDNA, biochemical characterisation of recombinant protein, and tissue distribution of mRNA”, J. Biol. Chem., 1993, 268, 6470-6476. For example, in Example 1 of WO 94/20079, human recombinant PDE4B is described as being expressed in the PDE-deficient yeast Saccharomyces cerevisiae strain GL62, e.g. after induction by addition of 150 uM CuSO4, and 100,000×g supernatant fractions of yeast cell lysates are described for use in the harvesting of PDE4B enzyme.\nThe ability of compounds to inhibit catalytic activity at PDE4B or 4D (human recombinant), PDE3 (from bovine aorta), PDE5 (human recombinant) or PDE6 (from bovine retina) can optionally be determined by Scintillation Proximity Assay (SPA) in a 96-well format.\nTest compounds (as a solution in DMSO, suitably about 2 microlitre (ul) volume of DMSO solution) are preincubated at ambient temperature (room temperature, e.g. 19-23° C.) in Wallac Isoplates (code 1450-514) with PDE enzyme in 50 mM Tris-HCl buffer pH 7.5, 8.3 mM MgCl2, 1.7 mM EGTA, 0.05% (w/v) bovine serum albumin for 10-30 minutes (usually 30 minutes). The enzyme concentration is adjusted so that no more than 20% hydrolysis of the substrate defined below occurs in control wells without compound, during the incubation. For the PDE3, PDE4B and PDE4D assays, [5′,8-^3H]Adenosine 3′,5′-cyclic phosphate (Amersham Pharmacia Biotech, code TRK.559; or Amersham Biosciences UK Ltd, Pollards Wood, Chalfont St Giles, Buckinghamshire HP8 4SP, UK) is added to give 0.05uCi per well and about 10 nM final concentration. For the PDE5 and PDE6 assays, [8^−3H]Guanosine 3′,5′-cyclic phosphate (Amersham Pharmacia Biotech, code TRK.392) is added to give 0.05uCi per well and about 36 nM final concentration. Plates containing assay mixture, suitably approx. 100 ul volume of assay mixture, are mixed on an orbital shaker for 5 minutes and incubated at ambient temperature for 1 hour. Phosphodiesterase SPA beads (Amersham Pharmacia Biotech, code RPNQ 0150) are added (about 1 mg per well) to terminate the assay. Plates are sealed and shaken and allowed to stand at ambient temperature for 35 minutes to 1 hour (suitably 35 minutes) to allow the beads to settle. Bound radioactive product is measured using a WALLAC TRILUX 1450 Microbeta scintillation counter. For inhibition curves, 10 concentrations (e.g. 1.5 nM-30 uM) of each compound are assayed. Curves are analysed using ActivityBase and XLfit (ID Business Solutions Limited, 2 Ocean Court, Surrey Research Park, Guildford, Surrey GU2 7QB, United Kingdom) Results are expressed as pIC50 values.\nThe ability of compounds to inhibit catalytic activity at PDE4B (human recombinant) or PDE4D (human recombinant) can optionally be determined by IMAP Fluorescence Polarisation (FP) assay (IMAP Explorer kit, available from Molecular Devices Corporation, Sunnydale, Calif., USA; Molecular Devices code: R8062) in 384-well format.\nThe IMAP FP assay is able to measure PDE activity in an homogenous, non-radioactive assay format. The FP assay uses the ability of immobilised trivalent metal cations, coated onto nanoparticles (tiny beads), to bind the phosphate group of Fl-AMP that is produced on the hydrolysis of fluorescein-labelled (Fl) cyclic adenosine mono-phosphate (Fl-cAMP) to the non-cyclic Fl-AMP form. […] Binding of Fl-AMP product to the beads (coated with the immobilised trivalent cations) slows the rotation of the bound Fl-AMP and leads to an increase in the fluorescence polarisation ratio of parallel to perpendicular light. Inhibition of the PDE reduces/inhibits this signal increase. […]"}},
  "data": [
    {"smiles": "CCc1nc2c(cnn2CC)c(NC2CCN(C(N)=O)CC2)c1CNC(=O)c1ccc(CCCCOCCCCN2CCOCC2)cc1", "note": "[Example 23, 4-({1,6-diethyl-5-[({[4-(4-{[4-(4-morpholinyl)butyl]oxy}butyl)phenyl]carbonyl}amino)methyl]-1H-pyrazolo[3,4-b]pyridin-4-yl}amino)-1-piperidinecarboxamide]", "values": [
      {"measurement": "IC50", "setting": "[1]", "result": "~0.631", "unit": "nM"},
      {"measurement": "IC50", "setting": "[2]", "result": "~0.0794", "unit": "nM"}
    ]}
  ]
}
